The target in one assay is T1, Acetylcholinesterase (Mus musculus, UniProt P21836).
T1 sequence (P21836 whole entry): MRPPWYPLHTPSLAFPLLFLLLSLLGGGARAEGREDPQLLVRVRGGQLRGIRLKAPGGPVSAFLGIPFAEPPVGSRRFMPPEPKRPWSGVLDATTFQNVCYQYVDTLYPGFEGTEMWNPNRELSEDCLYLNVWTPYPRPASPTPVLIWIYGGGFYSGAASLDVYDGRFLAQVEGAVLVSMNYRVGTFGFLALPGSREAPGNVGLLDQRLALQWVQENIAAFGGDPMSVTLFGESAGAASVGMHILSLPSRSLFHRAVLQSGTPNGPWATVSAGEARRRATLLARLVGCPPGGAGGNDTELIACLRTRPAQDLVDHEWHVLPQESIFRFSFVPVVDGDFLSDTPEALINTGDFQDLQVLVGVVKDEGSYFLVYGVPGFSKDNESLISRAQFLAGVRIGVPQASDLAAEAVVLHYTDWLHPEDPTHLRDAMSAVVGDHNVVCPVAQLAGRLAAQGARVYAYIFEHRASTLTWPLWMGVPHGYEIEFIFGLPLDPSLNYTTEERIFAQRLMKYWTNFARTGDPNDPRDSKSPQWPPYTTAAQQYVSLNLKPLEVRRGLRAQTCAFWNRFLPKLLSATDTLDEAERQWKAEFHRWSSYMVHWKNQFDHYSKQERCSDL
Kind of assay: Inhibition of wild type mouse AChE expressed in HEK293 cells using ATCh as substrate. It counts as cell-based.
With `CC[N+](C)(CC)CCC[n+]1c(-c2ccccc2)c2cc(N)ccc2c2ccc(N)cc21` [PROPIDIUM], the IC50 (as a rule, the concentration needed to halve the response being measured) came to 1.1 µM.

In a further assay the target is T1, Acetylcholinesterase. Kind of assay: Inhibition of mouse recombinant AChE using acetylthiocholine iodide as substrate by Ellman's method. A general note: DTNB colorimetry detects thiols as they appear.
Consider `CCN(CC)CCNS(=O)(=O)c1ccc(-c2ccc(Cl)cc2)cc1`, for which the IC50 was more than 700 µM.

Take `CCN(CC)CCNS(=O)(=O)Cc1ccc(Cl)cc1`: the IC50 was 12 µM.

On to `CCN(CC)CCNS(=O)(=O)c1ccc2ccccc2c1`, for which the IC50 was more than 700 µM.

In the case of `CCN(CC)CCNS(=O)(=O)c1cccc(C(F)(F)F)c1`, the IC50 is 22 µM.

Consider `CCN(CC)CCNS(=O)(=O)c1ccc(OC)cc1`, for which the IC50 is 119 µM.

For the compound `CCN(CC)CCNS(=O)(=O)c1cccc(OC)c1`, the concentration for half-maximal inhibition (IC50) was 7 µM.

As for `CCN(CC)CCNS(=O)(=O)c1ccc(Cl)cc1F`, the IC50 was found to be 91 µM.

As for `CCN(CC)CCNS(=O)(=O)c1ccc(F)cc1`, the IC50 worked out at 62 µM.

As to `CCN(CC)CCNS(=O)(=O)Cc1ccc(Cl)c(Cl)c1`, the concentration for half-maximal inhibition (IC50) came out at 7 µM.

In the case of `CCN(CC)CCNS(=O)(=O)c1ccc([N+](=O)[O-])cc1`, the IC50 worked out at 95 µM.

On to `CCN(CC)CCNS(=O)(=O)c1cccc2ccccc12`, for which the IC50 was 44 µM.

For `CCN(CC)CCNS(=O)(=O)Cc1ccccc1`, the IC50 stood at 139 µM.

Regarding `CCN(CC)CCNS(=O)(=O)c1ccccc1`, the IC50 is 31 µM.

Regarding `CCN(CC)CCNS(=O)(=O)Cc1ccc(F)cc1`, the IC50 was determined as 40 µM.

`CCN(CC)CCNS(=O)(=O)c1ccccc1F`: the IC50 was determined as 41 µM.

Consider `CCN(CC)CCNS(=O)(=O)c1cccc(Cl)c1`, for which the IC50 is 18 µM.

As for `CCN(CC)CCNS(=O)(=O)c1ccc(Cl)cc1`, the IC50 was 88 µM.

Regarding `CCN(CC)CCNS(=O)(=O)c1ccc(F)c(F)c1`, the half-inhibitory concentration (IC50) amounted to 50 µM.

For the compound `CCN(CC)CCNS(=O)(=O)Cc1ccc(C(F)(F)F)cc1`, the IC50 worked out at 12 µM.

On to `CCN(CC)CCNS(=O)(=O)Cc1ccc(Br)cc1`, for which the IC50 stood at 10 µM.

As to `CCN(CC)CCNS(=O)(=O)c1ccc(C)cc1`, the IC50 worked out at 135 µM.

In the next assay the target is T1, Acetylcholinesterase.
The compound `C/C=C1\[C@H]2C=C(C)C[C@]1(N)c1ccc(=O)[nH]c1C2` [HUPERZINE A] came in with an IC50 of 0.082 µM.

A further assay concerns the target T1, Acetylcholinesterase. Kind of assay: Binding affinity to mouse AChE by isothermal titration calorimetry.
Regarding `CCN(CC)CCNS(=O)(=O)Cc1ccc(Cl)cc1`, the dissociation constant (Kd) (in general, the free concentration of one partner at which half of the binding sites on the other are occupied at equilibrium, for simple one-to-one binding) worked out at 11.1 µM.

In the case of `CCN(CC)CCNS(=O)(=O)c1cccc(C(F)(F)F)c1`, the Kd stood at 14.8 µM.

In the case of `CCN(CC)CCNS(=O)(=O)c1cccc(Cl)c1`, the Kd was 44.4 µM.

`CCN(CC)CCNS(=O)(=O)Cc1ccc(C(F)(F)F)cc1` yielded a Kd of 9.2 µM.

For the origin of these results see ChEMBL document CHEMBL3085720, “Divergent structure-activity relationships of structurally similar acetylcholinesterase inhibitors” (J Med Chem, 2013).
